Each block holds one compound with its values, some of them ahead of it. Where a SMILES comes first, the peptide text is derived from it. Where no end group is shown, it is not given here.
Legend:
PAI-1 [1] = biological target: T1, PAI-1 (Homo sapiens, UniProt P05121); experiment: Release of PAI-1 activity by endothelial cells in culture; assay type: cell-based; conditions: human endothelial cell system, 6 hours, control = 100%
Method: PAI-1 is determined in the supernatant of HUVEC cells according to the method of Chmielewska et al., 1983. Briefly, cells are cultured in semiconfluent way with or without ECM. The culture medium is changed for Hank's balanced salt solution with 2% FCS and the tested substances with or without added plasmin (5 μg/ml) are diluted in this buffer and incubated with the cells for 6 hours. Samples from the cell supernatant are assayed for the PAI-1 activity.
For the PAI-1 assay, the cell supernatant is incubated with a fixed amount of tPA (40 U/ml) and the residual activity of the tPA is determined by a substrate composed of plasminogen (0.1μg/ml), chromogenic substrate (S-2251) and stimulator (Kabi, Sweden). After incubation with the substrate, O.D. is measured at 405 run and the amount of the inhibitor is calculated from calibration curve. PAI-1 antigen may also be determined with commercial kits.

PAI-1 [2] = biological target: T1, PAI-1; experiment: Competition ELISA: binding of vitronectin onto immobilized activated PAI-1; set-up: purchased American Diagnostica, New York; conditions: for level of inhibition achieved: FIG. 7, vitronectin 0.5 μg/ml, increasing peptide concentrations
Method: Protein concentration was determined by the method described by Bradford, 1976. The binding of vitronectin to immobilized PAI-1 was conducted as described by Salonen et al., 1989. The activation of PAI-1 by sodium dodecylsulfate was carried out as described by Katagiri et al., 1988. Amino acid sequencing was performed with an Applied Biosystem 475A sequencer.
Each of the synthetic peptides shown in Scheme I and each of the peptides containing amino acids with a D configuration (BP7, BP8 and BP14) was tested by a competition ELISA assay for its ability to inhibit the binding of vitronectin to immobilized activated PAI-1. The first screening (FIGS. 3A-3D) was carried out with an identical molar concentration (25 μM) of the peptides. In view of a possible variability in such tests (mainly due to some variability in the activated PAI-1 coating of the plates), a control of vitronectin alone was run alongside in each plate for reference.
The various synthetic peptides (all 50 μM) were dissolved in 50 μl of a buffer composed of PBS, Tween 20 (0.01%), polyethylene-glycol (average M.W. 8 kDa) (4% w/v). Each of the samples was added to a microtiter well coated with SDS-activated PAI, prepared as described by Katagiri et al., 1988. After an incubation of 30 min at 22° C., aliquots (50 μl) of a vitronectin solution (at various concentrations) in the same buffer were added to each well. This was followed by an incubation for 2 hrs at 37° C. The amount of bound vitronectin was determined with specific rabbit anti-human Vn antibodies (1:1000 dilution), followed by a β-galactosidase-linked protein A and using o-nitrophenyl-β-D-galactopyranoside (ONPG) as a substrate. The enzymatic reaction was allowed to proceed and the absorbance at 405+490 nm was measured. Each point in the graphs represents the mean of triplicate determinations. […]

T1 sequence (P05121 24-402): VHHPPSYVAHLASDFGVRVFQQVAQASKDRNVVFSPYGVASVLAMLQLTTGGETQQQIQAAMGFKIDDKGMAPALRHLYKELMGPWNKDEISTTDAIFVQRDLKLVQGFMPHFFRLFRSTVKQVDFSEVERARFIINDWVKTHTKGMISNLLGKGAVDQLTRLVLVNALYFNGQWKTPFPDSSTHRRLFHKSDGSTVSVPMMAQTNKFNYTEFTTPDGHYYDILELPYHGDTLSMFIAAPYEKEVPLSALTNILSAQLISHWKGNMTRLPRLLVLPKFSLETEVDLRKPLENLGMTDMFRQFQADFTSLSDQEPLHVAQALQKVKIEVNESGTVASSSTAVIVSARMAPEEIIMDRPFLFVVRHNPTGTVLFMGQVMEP

PAI-1 activity increase over control at 10 µM (PAI-1 [1]; 1 × 10^-5 M, read-out: PAI activity % above control (mean)): 29% | PAI-1 activity increase over control at 1 µM (PAI-1 [1]; 1 × 10^-6 M, read-out: PAI activity % above control (mean)): 47% | PAI-1 activity increase over control at 0.1 µM (PAI-1 [1]; 1 × 10^-7 M, read-out: PAI activity % above control (mean)): 0% | PAI-1 activity increase over control at 0.33 µM (PAI-1 [1]; 3.3 × 10^-7 M, read-out: PAI activity % above control (mean)): 17% | level of inhibition achieved (PAI-1 [2]): approximately 65%
Compound: C[C@H](NC(=O)[C@H](CCCNC(=N)N)NC(=O)[C@H](CO)NC(=O)[C@@H]1CCCN1C(=O)[C@H](CCCNC(=N)N)NC(=O)[C@H](CCCNC(=N)N)NC(=O)[C@H](CO)NC(=O)[C@H](CC(N)=O)NC(=O)[C@H](CCC(N)=O)NC(=O)[C@H](CC(N)=O)NC(=O)[C@H](CCCNC(=N)N)NC(=O)CNC(=O)[C@H](CCCNC(=N)N)NC(=O)[C@H](CO)NC(=O)[C@H](Cc1c[nH]cn1)NC(=O)CNC(=O)[C@H](CCCNC(=N)N)NC(=O)[C@H](CCC(N)=O)NC(=O)[C@@H](N)CO)C(=O)O [BP4] (H-SQRGHSRGRNQNSRRPSRA-OH)

PAI-1 activity decrease below control at 10 µM (PAI-1 [1]; 1 × 10^-5 M): 19.5% | PAI-1 activity decrease below control at 1 µM (PAI-1 [1]; 1 × 10^-6 M): 36.5% | PAI-1 activity decrease below control at 0.1 µM (PAI-1 [1]; 1 × 10^-7 M): 19% | PAI-1 activity decrease below control at 0.01 µM (PAI-1 [1]; 1 × 10^-8 M): 19% | PAI-1 activity decrease below control at 0.33 µM (PAI-1 [1]; 3.3 × 10^-7 M): 39% | level of inhibition achieved (PAI-1 [2]): approximately 65%
Compound: N=C(N)NCCC[C@H](NC(=O)[C@H](Cc1ccc(O)cc1)NC(=O)CNC(=O)[C@H](CCCCN)NC(=O)[C@H](CCCNC(=N)N)NC(=O)[C@H](CC(N)=O)NC(=O)[C@H](CCCNC(=N)N)NC(=O)[C@H](Cc1c[nH]cn1)NC(=O)[C@H](CCCNC(=N)N)NC(=O)[C@H](Cc1ccccc1)NC(=O)[C@H](CCCNC(=N)N)NC(=O)[C@H](CCC(N)=O)NC(=O)[C@H](CCCCN)NC(=O)[C@@H](N)CCCCN)C(=O)N[C@@H](CO)C(=O)N[C@@H](CCC(N)=O)C(=O)O [BP6] (H-KKQRFRHRNRKGYRSQ-OH)

level of inhibition achieved (PAI-1 [2]): approximately 65%
Compound: N=C(N)NCCC[C@H](NC(=O)CNC(=O)[C@H](CCCNC(=N)N)NC(=O)[C@H](CO)NC(=O)[C@H](Cc1c[nH]cn1)NC(=O)CNC(=O)[C@H](CCCNC(=N)N)NC(=O)[C@H](CCC(N)=O)NC(=O)[C@H](CO)NC(=O)[C@H](CCCNC(=N)N)NC(=O)[C@H](Cc1ccc(O)cc1)NC(=O)CNC(=O)[C@@H](N)CCCCN)C(=O)O [BP5] (H-KGYRSQRGHSRGR-OH)

binding to immobilized PAI-1 (effect on vitronectin binding) (PAI-1 [2]; D-configuration peptides, 1-10 μM, FIG. 8): bind to immobilized PAI-1
Compound: BP7: same sequence as BP6 (K348-Q363) but the underlined residues in Scheme II have D configuration (KKQRFRHRNRKGYRSQ; also: some residues are D-form, positions not given here (underlining not shown))

From patent US5491129A, “Synthetic peptides derived from vitronectin and pharmaceutical compositions comprising them” (Yeda Research and Development Co. Ltd., priority 1992, dated 1996)
